Like-named read-outs stand apart in the source and are kept apart here. One block for each compound: values may come before it.
Key:
NCI-60 cell line = NCI-60 cell line screen; type: cell-based; details: Homo sapiens; mean over NCI-60 panel
Method: (§1) This was further supported by the fact that 1 enhanced activity in melanoma cell lines with maximum activity against MALME-3M cells (GI50 value of 60 nM). With this in hand, chemical biological methods were applied to further probe this biological response.

MALME-3M cells = assay: NCI-60 cell line screen, melanoma line MALME-3M; type: cell-based; details: Homo sapiens, maximum activity in the panel
Method: as §1

HCT-116 cells [1] = assay: Cytotoxicity analysis (MTT/MTS) in HCT-116 colon carcinoma cells; type: cell-based, human; details: for IC50: Homo sapiens
Text: Fortunately, 1 was fluorescent with excitation maxima at 250 nm (ε=20,800 cm^−1M^−1), 289 nm (ε=24,000 cm^−1M^−1) and 342 nm (ε=6900 cm^−1M^−1) and a broad emission from 490-680 nm. Using confocal microscopy, red and green fluorescence from 1 appeared in HCT-116 cells within minutes of addition (FIG. 3A). […] Time course confocal imaging studies were then combined with conventional activity MTT assays^6 to provide a detailed correlation between cellular localization and cytostatic activity.
HCT-116 colon carcinoma cells were plated in 96-well plates at 2.5×10^4 cells/well. After 24 h, the cultures were treated with a single concentration seriniquinone (1) within the range of 0.02-20.0 μM, etoposide (positive control) in the range of 0.05-50 μM or 1% DMSO (negative control). The cells were incubated for either 24 h, 48 h or 72 h. At the end of the incubation period, cultures were added with 3-(4,5-dimethylthiazol-2-yl)-5-(3-carboxymethoxyphenyl)-2-(4-sulfophenyl)-2H-tetrazolium (MTS) for 3 h. Cell viability was quantified by the ability of living cells to reduce the yellow MTS dye to a purple formazan product. Time course experiments were also conducted in HCT-116 cells. Cells were exposed to 1 over short periods (1 h, 3 h, 6 h, and 9 h) followed by incubation in drug-free media to complete a total of 24 h incubation before addition of MTS.

HCT-116 cells [2] = assay: Western blot analysis of cell cycle, apoptotic and autophagy markers; type: cell-based, human
Method: HCT-116 cells (1×10^6 cells/mL) were seeded in 75 cm^2 cell culture flasks and, 24 h later, treated with 3 μM 1, 30 μM 1, 17 μM etoposide (positive control), or 0.3% DMSO (negative control). After 24 h incubation, cells were washed in PBS, harvested and lysed in RIPA buffer. Protein extracts were quantified by an adapted micro-method of the Lowry assay using the DC Protein Assay kit (BioRad Laboratories). Equal amounts of protein (30 μg) from each treatment were fractionated using SDS-PAGE 5-15% gel and transferred to a PVDF membrane (BioRad Laboratories). The membranes were incubated overnight at 4° C. with primary antibodies for caspase-3, cleaved caspase-3, caspase 7, cleaved caspase-7, caspase-9, cleaved caspase-9, PARP, cleaved PARP, cyclin A, cyclin B1, cyclin D1, cyclin D3, cyclin D3, cyclin E1, cyclin E2, LC3A, LC3B or dermcidin (Santa Cruz Biotech). β-actin (Abcam) was used to normalize protein loading. After washing with TBS containing 0.1% Tween-20, the membranes were incubated with the appropriate secondary antibody alkaline phosphatase conjugate (Cell Signaling Technology Inc.), followed by BCIP/NBT color development substrate (Perkin-Elmer).

HCT-116 cells [3] = assay: Cell cycle and DNA fragmentation analysis (FACS / ImageStream); type: cell-based, human
Method: Cell cycle was analyzed by the ImageStream® cell analysis system (Amnis). Briefly, HCT-116 cells (1×10^5 cells/mL) were seeded in 24-well plates, and 24 h later, 0.3 μM 1, 3 μM 1, 30 μM 1 or 17 μM etoposide (positive control) or 1% DMSO (negative control) was added to the cultures. After 18 h or 24 h incubation, cells were recovered by treatment with 0.05% trypsin-EDTA solution (GIBCO-BRL). An 100 μL aliquot of these cells were incubated for 30 min in the dark with a hypotonic solution containing 50 μg/mL propidium iodide, 0.1% sodium citrate, and 0.1% Triton X-100. Fluorescence was measured and DNA fragmentation and cell cycle were analyzed using ModFit LT for Win32 version 3.1.

DNA = assay: In vitro DNA fragmentation assays; type: biochemical
DCD-1L = assay: Covalent labeling of DCD-1L peptide (fluorescent band on SDS-PAGE); type: binding, human; details: 50 μM; for covalent labeling of DCD-1L: 37° C., 24 h; for fluorescent labeling of DCD-1L fragment: PBS pH 7.2, 5% DMSO, 23° C., 24 h (FIG. 5E)
Text: FIGS. 5A-5E: Seriniquinone (1) targets dermcidin (DCD). […] Sequence listing (FIG. 5B): […] (SEQ ID NO:3); […] (SEQ ID NO:4).
The reactivity between 1 and DCD was then examined. […] These studies now provided initial support for the formation of a unique trimeric covalent adduct, compound 15, between 1, DCD and targeted proteins such as GADPH.

HCT-116 cells [4] = assay: Confocal microscopy subcellular localization; type: cell-based, human; details: confocal imaging with counterstains
Method: Confocal studies were conducted on a LSM 710 inverted confocal microscope (Zeiss) with scanning module with 3 detection channels, Plan-Apochromat 63×/1.4 na objective, diode laser (405 nm, CW pulsed, 30 mW), Ar-laser (458 nm, 488 nm, 514 nm, 25 mW), HeNe-laser (543 nm, 1 mW) and HeNe-laser (633 nm, 5 mW). For all procedures, cells were seeded 24 h prior to treatment, to allow for adequate attachment to the well or flask bottom. Cells were plated in glass-bottom dishes (MatTek Corporation) for microscopic analyses at 1×10^5 cells/mL. Compounds were added to cells under 1 mL of media from […] such that the DMSO content remained under 0.1%. […]
Colocalization studies were conducted by treating cells (HCT-116 or MALME-3M) at a density of 1×10^5 cells/cm^2 in a 35 mm glass-bottom dish (MatTek Corporation). […] After 30 min, cells were washed PBS (4×1 mL) and immediately analyzed by confocal microscope. […] The localization of seriniquinone (1) was acquired by red fluorescence with emission at 550-631 nm, while the ER-tracker was acquired by blue florescence with emission at 406-450 nm. […] After 15 min, cells were washed PBS (4×1 mL) and immediately analyzed by confocal microscope. […] The localization of seriniquinone (1) was acquired by red fluorescence with emission at 550-631 nm, while the ER-tracker was acquired by blue florescence with emission at 415-530 nm.

[5] = Stability on storage / in solution; type: physicochemical
[6] = HCT-116, Table 1, read-out: HCT 116 IC50

SMILES: O=c1c2ccccc2c(=O)c2c1sc1c(=O)c3ccccc3c(=O)c12 [Compound 1, dinaphtho[2,3-b:2′,3′-d]thiophene-5,7,12,13-tetraone]
GI50 (NCI-60 cell line): 0.91 µM | LC50 (concentration giving 50% cell kill) (NCI-60 cell line): 18.6 µM | GI50 (MALME-3M cells): 0.06 µM | IC50 (HCT-116 cells [1]; [6]): 0.35 µM | IC50 (HCT-116 cells [1]; HCT-116 cells treated over 24 h period, MTT assay, read-out: IC50): 0.64 ± 0.06 µM | cleavage of caspases and PARP (HCT-116 cells [2]; HCT-116 cells): induced cleavage of caspases 3, 7 and 9 PARP | induction of autophagy (LC3A/LC3B conversion, Western blot) (HCT-116 cells [2]; HCT-116 cells, 24 h): induced autophagy | cyclin expression (HCT-116 cells [2]; HCT-116 treated cells): strong reduction in the expression of the cyclins D1, D2 and D3 | DNA fragmentation (cells with subdiploid DNA) (HCT-116 cells [3]): concentration dependent DNA fragmentation | cell cycle phase of remaining cells (HCT-116 cells [3]): S to G2 phase | DNA fragmentation in vitro (DNA): failed to induce DNA fragmentation | covalent labeling of DCD-1L (DCD-1L): covalently label DCD-1L | fluorescent labeling of DCD-1L fragment (DCD-1L): fluorescent bands corresponding to DCD-1L | subcellular localization (HCT-116 cells [4]): appeared soon after treatment in the ER

SMILES: Oc1c2ccccc2c(O)c2c1sc1c(O)c3ccccc3c(O)c12 [Compound S23]
stability in solution ([5]; in solution): oxidizes rapidly back to S22a in solution

SMILES: O=C(O)CCc1ccc2c(=O)c3c(sc4c(=O)c5ccccc5c(=O)c43)c(=O)c2c1 [acid 11, 3-(5,7,12,13-Tetraoxo-5,7,12,13-tetrahydrodinaphtho[2,3-b:2′,3′-d]-thiophen-3-yl)-propanoic acid]
covalent labeling of DCD-1L (DCD-1L): covalently label DCD-1L

storage stability of pure material ([5]; 1 month at −20° C.): significant decomposition
SMILES: CC(C)=CCCc1ccc2c(=O)c3c(sc4c(=O)c5ccccc5c(=O)c43)c(=O)c2c1 [alkene 10, 3-(4-Methylpent-3-en-1-yl)dinaphtho[2,3-b:2′,3′-d]thiophene-5,7,12,13-tetraone]
covalent labeling of DCD-1L (DCD-1L): covalently label DCD-1L | fluorescent labeling of DCD-1L fragment (DCD-1L): fluorescent bands corresponding to DCD-1L

SMILES: O=c1c2ccccc2c(=O)c2sc3c(=O)c4ccccc4c(=O)c3sc12 [p2]
HCT 116 IC50, μM (HCT-116 cells [1]; Table 1): NSA

SMILES: Nc1ccc2c(=O)c3c(sc4c(=O)c5ccc(N)cc5c(=O)c43)c(=O)c2c1 [p4]
IC50 (HCT-116 cells [1]; [6]): 2.2 µM

SMILES: O=c1c2cc(O)ccc2c(=O)c2c1sc1c(=O)c3ccc(O)cc3c(=O)c12 [p6]
IC50 (HCT-116 cells [1]; [6]): 1.9 µM

SMILES: O=c1c2cc(Cl)ccc2c(=O)c2c1sc1c(=O)c3ccc(Cl)cc3c(=O)c12 [p9]
IC50 (HCT-116 cells [1]; [6]): 0.55 µM

SMILES: O=C(Nc1ccc2c(=O)c3c(sc4c(=O)c5ccc(NC(=O)C(F)(F)F)cc5c(=O)c43)c(=O)c2c1)C(F)(F)F [p12]
IC50 (HCT-116 cells [1]; [6]): 0.71 µM

SMILES: CC(=O)Oc1ccc2c(=O)c3c(sc4c(=O)c5ccc(OC(C)=O)cc5c(=O)c43)c(=O)c2c1 [p14]
IC50 (HCT-116 cells [1]; [6]): 2.1 µM

SMILES: Nc1cccc2c(=O)c3c(sc4c(=O)c5cccc(N)c5c(=O)c43)c(=O)c12 [p20]
IC50 (HCT-116 cells [1]; [6]): 0.78 µM

SMILES: O=c1c2cccc(O)c2c(=O)c2c1sc1c(=O)c3c(O)cccc3c(=O)c12 [p21]
IC50 (HCT-116 cells [1]; [6]): 0.7 µM

SMILES: O=C(Nc1cccc2c(=O)c3c(sc4c(=O)c5cccc(NC(=O)C(F)(F)F)c5c(=O)c43)c(=O)c12)C(F)(F)F [p23]
IC50 (HCT-116 cells [1]; [6]): 0.078 µM

Reference: patent US9481662B2, “Seriniquinones, melanoma-specific anticancer agents” (The Regents of the University of California, priority 2012, dated 2016)
